# Experimental data from US8754071B2 (priority 2011, dated 2014).
# Where two headings read alike, the source gives them in different places.
# Molecular target: T1, c-kit (Homo sapiens, UniProt P10721)
# T1 construct: human Mo7e cells which endogenously express c-kit; endogenous in cells; host or cells: human Mo7e cells (promegakaryocytic leukemia line), stimulated with human recombinant SCF
# Test: Mo7e cell proliferation assay (SCF dependent proliferation)
# Format: cell-based
# Settings: read-out: c-kit (Mo7e)
# Description: Mo7e Cell Proliferation Assay The compounds of Table 1 and Table 2 were tested for inhibition of SCF dependent proliferation using human Mo7e cells which endogenously express c-kit in a 384 well format. […] After 48 hours of incubation at 37° C., cell viability was measured by adding 25 uL of CellTiter Glo (Promega) to the cells and the luminescence was measured by a […] camera (Molecular Devices). […] The IC50 value is given as that concentration of the test compound in question that provoke a response halfway between the baseline and maximum responses.
# [1] = Table 1, human Mo7e cells stimulated with SCF, 48 hours, CellTiter Glo, 1% FBS
# [2] = Table 2, human Mo7e cells stimulated with SCF, 48 hours, CellTiter Glo, 1% FBS
# [3] = Table 2, values marked *: 20% FBS instead of 1% FBS
# T1 sequence (P10721 26-976): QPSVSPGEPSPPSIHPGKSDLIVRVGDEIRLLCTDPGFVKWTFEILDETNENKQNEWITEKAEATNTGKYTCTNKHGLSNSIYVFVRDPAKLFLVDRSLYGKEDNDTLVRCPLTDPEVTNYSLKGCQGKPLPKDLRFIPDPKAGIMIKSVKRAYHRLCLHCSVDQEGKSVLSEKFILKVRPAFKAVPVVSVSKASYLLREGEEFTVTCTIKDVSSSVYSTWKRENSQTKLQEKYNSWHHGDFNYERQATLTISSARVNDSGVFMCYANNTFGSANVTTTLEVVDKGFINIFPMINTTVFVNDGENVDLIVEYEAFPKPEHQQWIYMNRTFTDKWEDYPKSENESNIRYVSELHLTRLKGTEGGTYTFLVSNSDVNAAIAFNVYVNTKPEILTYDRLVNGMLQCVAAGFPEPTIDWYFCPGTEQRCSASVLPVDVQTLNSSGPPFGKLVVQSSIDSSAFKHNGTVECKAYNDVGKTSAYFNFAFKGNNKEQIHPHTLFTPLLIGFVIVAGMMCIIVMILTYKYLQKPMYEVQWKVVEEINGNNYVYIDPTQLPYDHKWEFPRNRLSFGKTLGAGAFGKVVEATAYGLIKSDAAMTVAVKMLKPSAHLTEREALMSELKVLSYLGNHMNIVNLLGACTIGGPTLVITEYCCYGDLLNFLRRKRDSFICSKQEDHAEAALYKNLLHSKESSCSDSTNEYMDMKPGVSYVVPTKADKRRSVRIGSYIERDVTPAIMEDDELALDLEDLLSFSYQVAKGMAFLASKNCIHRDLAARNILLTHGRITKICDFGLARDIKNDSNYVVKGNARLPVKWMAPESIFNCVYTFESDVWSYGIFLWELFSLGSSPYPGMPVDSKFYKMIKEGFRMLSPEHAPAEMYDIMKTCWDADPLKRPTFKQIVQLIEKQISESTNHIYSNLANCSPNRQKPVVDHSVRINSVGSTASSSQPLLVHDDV
IC50 [1] [nM],SMILES,also measured
26,"COC(=O)N1CC(c2nc(-c3ccc(C)c(NC(=O)c4cnc5cc(C)ccn45)c3)no2)C1 [F61, methyl 3-(3-(4-methyl-3-(7-methylimidazo[1,2-a]pyridine-3-carboxamido)phenyl)-1,2,4-oxadiazol-5-yl)azetidine-1-carboxylate]",
36,"COC(=O)N1CC(c2nc(-c3ccc(C)c(NC(=O)c4cnc5ccc(C)cn45)c3)no2)C1 [F62, methyl 3-(3-(4-methyl-3-(6-methylimidazo[1,2-a]pyridine-3-carboxamido)phenyl)-1,2,4-oxadiazol-5-yl)azetidine-1-carboxylate]",
13,COC(=O)N1CC(c2nc(-c3ccc(C)c(NC(=O)c4cnc5cc(-c6cnn(CCN7CCOCC7)c6)ccn45)c3)no2)C1 [F63],
64,"COC(=O)N1CC(c2nc(-c3ccc(C)c(NC(=O)c4cnc5ccc(CCC#N)cn45)c3)no2)C1 [F64, methyl 3-(3-(3-(6-(2-cyanoethyl)imidazo[1,2-a]pyridine-3-carboxamido)-4-methylphenyl)-1,2,4-oxadiazol-5-yl)azetidine-1-carboxylate]",
33,"COC(=O)N1CC(c2nc(-c3ccc(C)c(NC(=O)c4cnc5ccc(CCC(C)=O)cn45)c3)no2)C1 [F65, methyl 3-(3-(4-methyl-3-(6-(3-oxobutyl)imidazo[1,2-a]pyridine-3-carboxamido)phenyl)-1,2,4-oxadiazol-5-yl)azetidine-1-carboxylate]",
50,"COC(=O)N1CC(c2nc(-c3ccc(C)c(NC(=O)c4cnc5ccc(CCN6CCOCC6)cn45)c3)no2)C1 [F66, methyl 3-(3-(4-methyl-3-(6-(2-morpholinoethyl)imidazo[1,2-a]pyridine-3-carboxamido)phenyl)-1,2,4-oxadiazol-5-yl)azetidine-1-carboxylate]",
29,"COC(=O)N1CC(c2nc(-c3ccc(C)c(NC(=O)c4cnc5ccc(CCC(C)(C)O)cn45)c3)no2)C1 [F67, methyl 3-(3-(3-(6-(3-hydroxy-3-methylbutyl)imidazo[1,2-a]pyridine-3-carboxamido)-4-methylphenyl)-1,2,4-oxadiazol-5-yl)azetidine-1-carboxylate]",
13,"COC(=O)N1CC(c2nc(-c3ccc(C)c(NC(=O)c4cnc5cc(-c6cc[nH]n6)ccn45)c3)no2)C1 [F68, methyl 3-(3-(3-(7-(1H-pyrazol-3-yl)imidazo[1,2-a]pyridine-3-carboxamido)-4-methylphenyl)-1,2,4-oxadiazol-5-yl)azetidine-1-carboxylate]",
39,Cc1ccc(Nc2noc(C3CCOCC3)n2)cc1NC(=O)c1cnc2ccccn12 [F69],
6,Cc1ccc(Nc2noc(C3CCCCO3)n2)cc1NC(=O)c1cnc2ccccn12 (centres unmarked) [F70],
11,Cc1ccc(Nc2noc([C@H]3CCCO3)n2)cc1NC(=O)c1cnc2ccccn12 [F71],
6,Cc1ccc(Nc2noc([C@@H]3CCCO3)n2)cc1NC(=O)c1cnc2ccccn12 [F72],
30,"COC(=O)N1CC(c2nc(-c3ccc(C)c(NC(=O)c4cnc5cc(CCC(C)=O)ccn45)c3)no2)C1 [F73, methyl 3-(3-(4-methyl-3-(7-(3-oxobutyl)imidazo[1,2-a]pyridine-3-carboxamido)phenyl)-1,2,4-oxadiazol-5-yl)azetidine-1-carboxylate]",
51,"COC(=O)N1CC(c2nc(-c3ccc(C)c(NC(=O)c4cnc5cc(CCC(C)(C)O)ccn45)c3)no2)C1 [F74, methyl 3-(3-(3-(7-(3-hydroxy-3-methylbutyl)imidazo[1,2-a]pyridine-3-carboxamido)-4-methylphenyl)-1,2,4-oxadiazol-5-yl)azetidine-1-carboxylate]",
61,"Cc1ccc(-c2nc(N3CCOCC3)no2)cc1NC(=O)c1cnc2ccccn12 [F75, N-(2-methyl-5-(3-morpholino-1,2,4-oxadiazol-5-yl)phenyl)imidazo[1,2-a]pyridine-3-carboxamide]",
51,"[2H]c1c([2H])c([2H])n2c(C(=O)Nc3cc(-c4noc(C5CN(C(=O)OC)C5)n4)ccc3C)cnc2c1[2H] [F76, methyl 3-(3-(4-methyl-3-(5,6,7,8-(D4)imidazo[1,2-a]pyridine-3-carboxamido)phenyl)-1,2,4-oxadiazol-5-yl)azetidine-1-carboxylate]",
132,"Cc1ccc(-c2noc(N3CCC3)n2)cc1NC(=O)c1cnc2ccccn12 [F77, N-(5-(5-(azetidin-1-yl)-1,2,4-oxadiazol-3-yl)-2-methylphenyl)imidazo[1,2-a]pyridine-3-carboxamide]",
55,Cc1ccc(-c2noc(N3CC(F)(F)C3)n2)cc1NC(=O)c1cnc2ccccn12 [F78],
37,"COC(=O)N1CC(c2nc(-c3cc(NC(=O)c4cnc5ccccn45)c(C)cc3C)no2)C1 [F79, methyl 3-(3-(5-(imidazo[1,2-a]pyridine-3-carboxamido)-2,4-dimethylphenyl)-1,2,4-oxadiazol-5-yl)azetidine-1-carboxylate]",
44,"[2H]C([2H])([2H])c1ccn2c(C(=O)Nc3cc(-c4noc(C5CN(C(=O)OC)C5)n4)ccc3C)cnc2c1 [F80, methyl 3-(3-(4-methyl-3-(7-methyl-d3-imidazo[1,2-a]pyridine-3-carboxamido)phenyl)-1,2,4-oxadiazol-5-yl)azetidine-1-carboxylate]",
84,Cc1ccc(-c2noc(NC3CCOCC3)n2)cc1NC(=O)c1cnc2cc(F)ccn12 [F81],
55,Cc1ccc2ncc(C(=O)Nc3cc(-c4noc(NC5CCOCC5)n4)ccc3C)n2c1 [F82],
40,COC(=O)N1CC(c2nc(-c3ccc(C)c(NC(=O)c4cnc5ccc(N6CCOCC6)cn45)c3)no2)C1 [F83],
38,COC(=O)N1CC(c2nc(-c3ccc(C)c(NC(=O)c4cnc5ccc(COCC(F)(F)F)cn45)c3)no2)C1 [F84],
93,Cc1ccn2c(C(=O)Nc3cc(-c4noc(N5CC(F)(F)C5)n4)ccc3C)cnc2c1 [F86],
91,Cc1ccc(-c2noc(N3CC(F)(F)C3)n2)cc1NC(=O)c1cnc2cc(F)ccn12 [F87],
62,Cc1ccn2c(C(=O)Nc3cc(-c4noc(N5CC(C)(O)C5)n4)ccc3C)cnc2c1 [F88],

IC50 [1] [nM],SMILES,also measured
31,Cc1ccn2c(C(=O)Nc3cc(-c4noc(N5CCC(F)(F)CC5)n4)ccc3C)cnc2c1 [F89],
33,Cc1ccn2c(C(=O)Nc3cc(-c4noc(N5CCC(F)CC5)n4)ccc3C)cnc2c1 [F90],
64,Cc1ccn2c(C(=O)Nc3cc(-c4noc(N5CCOCC5)n4)ccc3C)cnc2c1 [F91],
21,Cc1ccn2c(C(=O)Nc3cc(-c4noc(N5CCC(F)(F)C5)n4)ccc3C)cnc2c1 [F92],
48,Cc1ccn2c(C(=O)Nc3cc(-c4noc(N5CCCC(C(F)(F)F)C5)n4)ccc3C)cnc2c1 (centres unmarked) [F93],
92,Cc1ccc(-c2nc(N3C[C@@H]4C[C@H]3CO4)no2)cc1NC(=O)c1cnc2ccccn12 [F94],
19,"COC(=O)N1CC(c2nc(-c3ccc(C)c(NC(=O)c4cnc5ccc(COCC(F)F)cn45)c3)no2)C1 [F95, methyl 3-(3-(3-(6-((2,2-difluoroethoxy)methyl)imidazo[1,2-a]pyridine-3-carboxamido)-4-methylphenyl)-1,2,4-oxadiazol-5-yl)azetidine-1-carboxylate]",
26,COC(=O)N1CC(c2nc(-c3ccc(C)c(NC(=O)c4cnc5ccc(COCCF)cn45)c3)no2)C1 [F96],
44,"[2H]c1ccn2c(C(=O)Nc3cc(-c4noc(C5CN(C(=O)OC)C5)n4)ccc3C)cnc2c1 [F97, methyl 3-(3-(3-(7-deuteroimidazo[1,2-a]pyridine-3-carboxamido)-4-methylphenyl)-1,2,4-oxadiazol-5-yl)azetidine-1-carboxylate]",
43,[2H]c1ccc2ncc(C(=O)Nc3cc(-c4noc(C5CN(C(=O)OC)C5)n4)ccc3C)n2c1 [F98],
49,Cc1nc(C)c(-c2ccc3ncc(C(=O)Nc4cc(-c5noc(CN6CC(C#N)C6)n5)ccc4C)n3c2)s1 [F99],
,Cc1ccc(-c2nc(CCOC3CCN(Cc4ccccc4)CC3)no2)cc1NC(=O)c1cnc2ccccn12 [F100],IC50 [2]: 198 nM
,COC(=O)N1CC(c2noc(-c3ccc(C)c(NC(=O)c4cnc5ccccn45)c3)n2)C1 [F101],IC50 [2]: 332 nM
,Cc1ccc(-c2noc(C3CCOCC3)n2)cc1NC(=O)c1cnc2ccccn12 [F102],IC50 [2]: 286 nM
,Cc1ccc(-c2noc([C@H]3CCCO3)n2)cc1NC(=O)c1cnc2ccccn12 [F103],IC50 [3]: 229 nM
,Cc1ccc(-c2noc([C@@H]3CCCO3)n2)cc1NC(=O)c1cnc2ccccn12 [F104],IC50 [3]: 224 nM
,Cc1ccc(-c2noc(C3CCN(C(=O)OC(C)(C)C)CC3)n2)cc1NC(=O)c1cnc2ccccn12 [F105],IC50 [2]: 505 nM
,Cc1ccc(-c2noc(C3CCCN3C(=O)OC(C)(C)C)n2)cc1NC(=O)c1cnc2ccccn12 (centres unmarked) [F106],IC50 [2]: 935 nM
,Cc1ccc(-c2noc(C3CCN(C(=O)OC(C)(C)C)C3)n2)cc1NC(=O)c1cnc2ccccn12 (centres unmarked) [F107],IC50 [2]: 912 nM
,Cc1ccc(-c2noc(C3CCCCN3)n2)cc1NC(=O)c1cnc2ccccn12 (centres unmarked) [F109],IC50 [2]: 215 nM
,Cc1ccc(-c2noc(C3CCCCN3S(C)(=O)=O)n2)cc1NC(=O)c1cnc2ccccn12 (centres unmarked) [F110],IC50 [3]: 227 nM
,Cc1ccc(-c2noc(C3CCCCN3C)n2)cc1NC(=O)c1cnc2ccccn12 (centres unmarked) [F111],IC50 [2]: 243 nM
,Cc1ccc(-c2noc(C3CCC(O)CO3)n2)cc1NC(=O)c1cnc2ccccn12 (centres unmarked) [F112],IC50 [2]: 227 nM
,Cc1ccc(-c2noc(C3CN(C(=O)OC(C)(C)C)C3)n2)cc1NC(=O)c1cnc2ccccn12 [F113],IC50 [2]: 623 nM
,Cc1ccc(-c2noc(C3CC[C@H](O)CO3)n2)cc1NC(=O)c1cnc2ccccn12 (some centres unmarked) [F114],IC50 [2]: 183 nM
,CC(=O)N1CC(c2nc(-c3ccc(C)c(NC(=O)c4cnc5ccccn45)c3)no2)C1 [F115],IC50 [2]: 464 nM
